{"source": "the supplement of paper PMC10307832", "assay_in_all_cases": "relative viability (nuclei count vs DMSO), 5 days (fraction); higher = more cells survive", "key": {"[1]": {"test_system": "NCI-H1437", "in_short": "(§1)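 Lung cancer cell lines in 1536-well plates were dosed by pin tool the day after seeding, either with one drug alone or with a fixed anchor-drug dose plus five library-drug doses (not always all listed) in √10 steps. After 5 days, cells were fixed and their nuclei stained in one step (final 0.05% Triton X-100, 1% formaldehyde, 1 ug/ml Hoechst), then counted on 4× images. Relative viability is the nuclei count in treated wells divided by that in vehicle wells. Values are medians of duplicate plates.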"}, "[2]": {"test_system": "HCC-827", "in_short": "as §1"}, "[3]": {"test_system": "CAL-12T", "in_short": "as §1"}, "[4]": {"test_system": "NCI-H322M", "in_short": "as §1"}, "[5]": {"test_system": "NCI-H23", "in_short": "as §1"}, "[6]": {"test_system": "LCLC-103H", "in_short": "as §1"}, "[7]": {"test_system": "201T", "in_short": "as §1"}, "[8]": {"test_system": "COR-L 105", "in_short": "as §1"}, "[9]": {"test_system": "LC-2-ad", "in_short": "as §1"}, "[10]": {"test_system": "LK-2", "in_short": "as §1"}, "[11]": {"test_system": "NCI-H2228", "in_short": "as §1"}, "[12]": {"test_system": "HCC-15", "in_short": "as §1"}, "[13]": {"test_system": "UMC-11", "in_short": "as §1"}, "[14]": {"test_system": "H3255", "in_short": "as §1"}, "[15]": {"test_system": "LXF-289", "in_short": "as §1"}, "[16]": {"test_system": "NCI-H2405", "in_short": "as §1"}, "[17]": {"test_system": "HARA", "in_short": "as §1"}, "[18]": {"test_system": "BEN", "in_short": "as §1"}, "[19]": {"test_system": "NCI-H2085", "in_short": "as §1"}, "[20]": {"test_system": "RERF-LC-KJ", "in_short": "as §1"}, "[21]": {"test_system": "LU99A", "in_short": "as §1"}, "[22]": {"test_system": "NCI-H1651", "in_short": "as §1"}}}
{"smiles": "O=c1[nH]c2ccccc2n1C1CCN(CCCC(c2ccc(F)cc2)c2ccc(F)cc2)CC1", "note": "[Pimozide] + COc1cc2c(Oc3ccc(NC(=O)C4(C(=O)Nc5ccc(F)cc5)CC4)cc3F)ccnc2cc1OCCCN1CCOCC1 [Foretinib] (partner 0.25 µM)", "values": [{"measurement": "relative viability", "setting": "[1]; first compound 0.08 µM", "value": 1.27}, {"measurement": "relative viability", "setting": "[1]; first compound 0.253 µM", "value": 1.21}, {"measurement": "relative viability", "setting": "[1]; first compound 0.8 µM", "value": 1.21}, {"measurement": "relative viability", "setting": "[1]; first compound 2.53 µM", "value": 1.28}, {"measurement": "relative viability", "setting": "[1]; first compound 8 µM", "value": 1.18}, {"measurement": "relative viability", "setting": "[2]; first compound 0.253 µM", "value": 1.01}, {"measurement": "relative viability", "setting": "[2]; first compound 0.8 µM", "value": 0.915}, {"measurement": "relative viability", "setting": "[2]; first compound 2.53 µM", "value": 0.967}, {"measurement": "relative viability", "setting": "[2]; first compound 8 µM", "value": 0.904}, {"measurement": "relative viability", "setting": "[3]; first compound 0.08 µM", "value": 0.979}, {"measurement": "relative viability", "setting": "[3]; first compound 0.253 µM", "value": 1.17}, {"measurement": "relative viability", "setting": "[3]; first compound 0.8 µM", "value": 1.11}, {"measurement": "relative viability", "setting": "[3]; first compound 2.53 µM", "value": 0.928}, {"measurement": "relative viability", "setting": "[3]; first compound 8 µM", "value": 0.96}, {"measurement": "relative viability", "setting": "[4]; first compound 0.253 µM", "value": 1.04}, {"measurement": "relative viability", "setting": "[4]; first compound 0.8 µM", "value": 0.85}, {"measurement": "relative viability", "setting": "[4]; first compound 2.53 µM", "value": 0.942}, {"measurement": "relative viability", "setting": "[4]; first compound 8 µM", "value": 0.844}, {"measurement": "relative viability", "setting": "[5]; first compound 0.08 µM", "value": 0.676}, {"measurement": "relative viability", "setting": "[5]; first compound 0.253 µM", "value": 1.07}, {"measurement": "relative viability", "setting": "[5]; first compound 0.8 µM", "value": 0.833}, {"measurement": "relative viability", "setting": "[5]; first compound 2.53 µM", "value": 0.712}, {"measurement": "relative viability", "setting": "[5]; first compound 8 µM", "value": 0.829}, {"measurement": "relative viability", "setting": "[6]; first compound 0.08 µM", "value": 0.946}, {"measurement": "relative viability", "setting": "[6]; first compound 0.253 µM", "value": 0.716}, {"measurement": "relative viability", "setting": "[6]; first compound 0.8 µM", "value": 0.747}, {"measurement": "relative viability", "setting": "[6]; first compound 2.53 µM", "value": 0.678}, {"measurement": "relative viability", "setting": "[6]; first compound 8 µM", "value": 0.591}, {"measurement": "relative viability", "setting": "[7]; first compound 0.08 µM", "value": 1.08}, {"measurement": "relative viability", "setting": "[7]; first compound 0.253 µM", "value": 1.06}, {"measurement": "relative viability", "setting": "[7]; first compound 0.8 µM", "value": 0.979}, {"measurement": "relative viability", "setting": "[7]; first compound 2.53 µM", "value": 1.02}, {"measurement": "relative viability", "setting": "[7]; first compound 8 µM", "value": 0.909}, {"measurement": "relative viability", "setting": "[8]; first compound 0.253 µM", "value": 1.01}, {"measurement": "relative viability", "setting": "[8]; first compound 0.8 µM", "value": 0.99}, {"measurement": "relative viability", "setting": "[8]; first compound 2.53 µM", "value": 0.876}, {"measurement": "relative viability", "setting": "[8]; first compound 8 µM", "value": 0.779}, {"measurement": "relative viability", "setting": "[9]; first compound 0.08 µM", "value": 0.911}, {"measurement": "relative viability", "setting": "[9]; first compound 0.253 µM", "value": 0.928}, {"measurement": "relative viability", "setting": "[9]; first compound 0.8 µM", "value": 0.909}, {"measurement": "relative viability", "setting": "[9]; first compound 2.53 µM", "value": 0.901}, {"measurement": "relative viability", "setting": "[9]; first compound 8 µM", "value": 0.868}, {"measurement": "relative viability", "setting": "[10]; first compound 0.08 µM", "value": 1.65}, {"measurement": "relative viability", "setting": "[10]; first compound 0.253 µM", "value": 0.98}, {"measurement": "relative viability", "setting": "[10]; first compound 2.53 µM", "value": 0.875}, {"measurement": "relative viability", "setting": "[10]; first compound 8 µM", "value": 1.24}, {"measurement": "relative viability", "setting": "[11]; first compound 0.08 µM", "value": 0.863}, {"measurement": "relative viability", "setting": "[11]; first compound 0.253 µM", "value": 0.839}, {"measurement": "relative viability", "setting": "[11]; first compound 0.8 µM", "value": 0.574}, {"measurement": "relative viability", "setting": "[11]; first compound 2.53 µM", "value": 0.831}, {"measurement": "relative viability", "setting": "[11]; first compound 8 µM", "value": 0.612}, {"measurement": "relative viability", "setting": "[12]; first compound 0.08 µM", "value": 1.09}, {"measurement": "relative viability", "setting": "[12]; first compound 0.253 µM", "value": 1.01}, {"measurement": "relative viability", "setting": "[12]; first compound 0.8 µM", "value": 0.868}, {"measurement": "relative viability", "setting": "[12]; first compound 2.53 µM", "value": 0.964}, {"measurement": "relative viability", "setting": "[12]; first compound 8 µM", "value": 0.94}, {"measurement": "relative viability", "setting": "[13]; first compound 0.08 µM", "value": 1.05}, {"measurement": "relative viability", "setting": "[13]; first compound 0.253 µM", "value": 1.01}, {"measurement": "relative viability", "setting": "[13]; first compound 0.8 µM", "value": 1}, {"measurement": "relative viability", "setting": "[13]; first compound 2.53 µM", "value": 1.14}, {"measurement": "relative viability", "setting": "[13]; first compound 8 µM", "value": 1.07}, {"measurement": "relative viability", "setting": "[14]; first compound 0.253 µM", "value": 0.781}, {"measurement": "relative viability", "setting": "[14]; first compound 0.8 µM", "value": 0.775}, {"measurement": "relative viability", "setting": "[14]; first compound 2.53 µM", "value": 0.78}, {"measurement": "relative viability", "setting": "[14]; first compound 8 µM", "value": 0.894}, {"measurement": "relative viability", "setting": "[15]; first compound 0.08 µM", "value": 0.989}, {"measurement": "relative viability", "setting": "[15]; first compound 0.253 µM", "value": 0.929}, {"measurement": "relative viability", "setting": "[15]; first compound 0.8 µM", "value": 0.944}, {"measurement": "relative viability", "setting": "[15]; first compound 2.53 µM", "value": 0.892}, {"measurement": "relative viability", "setting": "[15]; first compound 8 µM", "value": 0.934}, {"measurement": "relative viability", "setting": "[16]; first compound 0.08 µM", "value": 1.03}, {"measurement": "relative viability", "setting": "[16]; first compound 0.253 µM", "value": 1.02}, {"measurement": "relative viability", "setting": "[16]; first compound 0.8 µM", "value": 1.04}, {"measurement": "relative viability", "setting": "[16]; first compound 2.53 µM", "value": 0.961}, {"measurement": "relative viability", "setting": "[16]; first compound 8 µM", "value": 0.838}, {"measurement": "relative viability", "setting": "[17]; first compound 0.253 µM", "value": 0.874}, {"measurement": "relative viability", "setting": "[17]; first compound 0.8 µM", "value": 0.873}, {"measurement": "relative viability", "setting": "[17]; first compound 2.53 µM", "value": 0.733}, {"measurement": "relative viability", "setting": "[17]; first compound 8 µM", "value": 0.766}, {"measurement": "relative viability", "setting": "[18]; first compound 0.08 µM", "value": 0.624}, {"measurement": "relative viability", "setting": "[18]; first compound 0.253 µM", "value": 0.768}, {"measurement": "relative viability", "setting": "[18]; first compound 0.8 µM", "value": 0.618}, {"measurement": "relative viability", "setting": "[18]; first compound 2.53 µM", "value": 0.581}, {"measurement": "relative viability", "setting": "[18]; first compound 8 µM", "value": 0.783}, {"measurement": "relative viability", "setting": "[19]; first compound 0.08 µM", "value": 0.956}, {"measurement": "relative viability", "setting": "[19]; first compound 0.253 µM", "value": 0.899}, {"measurement": "relative viability", "setting": "[19]; first compound 0.8 µM", "value": 1.1}, {"measurement": "relative viability", "setting": "[19]; first compound 2.53 µM", "value": 0.909}, {"measurement": "relative viability", "setting": "[19]; first compound 8 µM", "value": 0.949}, {"measurement": "relative viability", "setting": "[20]; first compound 0.08 µM", "value": 0.907}, {"measurement": "relative viability", "setting": "[20]; first compound 0.253 µM", "value": 0.844}, {"measurement": "relative viability", "setting": "[20]; first compound 0.8 µM", "value": 0.831}, {"measurement": "relative viability", "setting": "[20]; first compound 2.53 µM", "value": 0.821}, {"measurement": "relative viability", "setting": "[20]; first compound 8 µM", "value": 0.848}, {"measurement": "relative viability", "setting": "[21]; first compound 0.08 µM", "value": 0.872}, {"measurement": "relative viability", "setting": "[21]; first compound 0.253 µM", "value": 0.756}, {"measurement": "relative viability", "setting": "[21]; first compound 0.8 µM", "value": 0.922}, {"measurement": "relative viability", "setting": "[21]; first compound 2.53 µM", "value": 0.84}, {"measurement": "relative viability", "setting": "[21]; first compound 8 µM", "value": 0.922}, {"measurement": "relative viability", "setting": "[22]; first compound 0.08 µM", "value": 0.763}, {"measurement": "relative viability", "setting": "[22]; first compound 0.253 µM", "value": 0.717}, {"measurement": "relative viability", "setting": "[22]; first compound 0.8 µM", "value": 0.867}, {"measurement": "relative viability", "setting": "[22]; first compound 2.53 µM", "value": 0.871}, {"measurement": "relative viability", "setting": "[22]; first compound 8 µM", "value": 0.869}]}
